This passage reports EC50 results from BindingDB's records for doi:10.1021/jm00080a030 (Abbott Laboratories, 1992).

This experiment deals with C5a anaphylatoxin chemotactic receptor 1 (Homo sapiens) (UniProt P21730). The experiment can be described thus: Potency as the maximal lysosomal myeloperoxidase (MPO) release in PMNL assay.
C5a anaphylatoxin chemotactic receptor 1 (Homo sapiens), sequence (P21730 whole entry, looked up): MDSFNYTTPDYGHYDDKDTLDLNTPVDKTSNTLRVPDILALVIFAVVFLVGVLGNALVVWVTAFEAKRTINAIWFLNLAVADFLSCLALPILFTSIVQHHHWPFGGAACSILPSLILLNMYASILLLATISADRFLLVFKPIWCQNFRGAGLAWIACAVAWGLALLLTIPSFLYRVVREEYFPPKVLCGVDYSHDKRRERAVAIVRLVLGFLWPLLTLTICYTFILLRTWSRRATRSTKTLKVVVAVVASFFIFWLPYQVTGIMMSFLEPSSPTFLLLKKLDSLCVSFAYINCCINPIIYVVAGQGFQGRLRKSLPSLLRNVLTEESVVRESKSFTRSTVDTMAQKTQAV
By EC50 is commonly meant the concentration that produces a half-maximal response. Low values mean a more potent agent, high ones a less potent agent. On to H-LRANISFKDMQLGR-OH, for which the response was half-maximal at 60 µM (EC50).
Under Ac-FKDMQLGR-OH stands 35 µM.
Next, `CSCC[C@H](NC(=O)[C@H](CC(=O)O)NC(=O)[C@H](CCCCN)NC(=O)[C@@H](N)Cc1cccs1)C(=O)N[C@@H](CCC(N)=O)C(=O)N[C@@H](CC(C)C)C(=O)NCC(=O)N[C@@H](CCCNC(=N)N)C(=O)O`: 200 µM.
